Reference: ChEMBL document CHEMBL5335783, “Inhibitory activity of catecholic phosphonic and phosphinic acids against Helicobacter pylori ureolysis” (Eur J Med Chem, 2023)
pIC50, pKi: −log10 of the molar value. The source made the active and inactive calls. No cut-off for these calls is given here.

Key:
[1] = Cytotoxicity against mouse Balb/3T3-L1 cells assessed as reduction in cell proliferation at 100 uM incubated for 72 hrs by SRB assay relative to control; assay type: toxicity, cell-based; settings: read-out: Activity
[2] = Cytotoxicity against mouse Balb/3T3-L1 cells assessed as reduction in cell proliferation at 31.4 uM incubated for 72 hrs by SRB assay relative to control; assay type: toxicity, cell-based; settings: read-out: Activity
[3] = Cytotoxicity against mouse Balb/3T3-L1 cells assessed as reduction in cell proliferation at 10 uM incubated for 72 hrs by SRB assay relative to control; assay type: toxicity, cell-based; settings: read-out: Activity
[4] = Cytotoxicity against mouse Balb/3T3-L1 cells assessed as reduction in cell proliferation at 3.14 uM incubated for 72 hrs by SRB assay relative to control; assay type: toxicity, cell-based; design: scale not given: the % may be the effect or the level left; settings: balb/3t3-l1, 72 h
[5] = Cytotoxicity against mouse Balb/3T3-L1 cells assessed as reduction in cell proliferation at 1 uM incubated for 72 hrs by SRB assay relative to control; assay type: toxicity, cell-based; settings: read-out: Activity
[6] = Cytotoxicity against mouse Balb/3T3-L1 cells assessed as reduction in cell proliferation at 0.31 uM incubated for 72 hrs by SRB assay relative to control; assay type: toxicity, cell-based; settings: read-out: Activity
[7] = Cytotoxicity against mouse Balb/3T3-L1 cells assessed as reduction in cell proliferation at 0.1 uM incubated for 72 hrs by SRB assay relative to control; assay type: toxicity, cell-based; design: scale not given: the % may be the effect or the level left; settings: balb/3t3-l1, 72 h
[8] = Cytotoxicity against HEK293 cells assessed as reduction in cell proliferation at 100 uM incubated for 72 hrs by SRB assay relative to control; assay type: toxicity, cell-based; settings: human, read-out: Activity
[9] = Cytotoxicity against HEK293 cells assessed as reduction in cell proliferation at 31.4 uM incubated for 72 hrs by SRB assay relative to control; assay type: toxicity, cell-based; settings: human, read-out: Activity
[10] = tested on: HEK293; assay: Cytotoxicity against HEK293 cells assessed as reduction in cell proliferation at 10 uM incubated for 72 hrs by SRB assay relative to control; assay type: toxicity, cell-based; design: scale not given: the % may be the effect or the level left; settings: human, hek293, 72 h
[11] = Cytotoxicity against HEK293 cells assessed as reduction in cell proliferation at 3.14 uM incubated for 72 hrs by SRB assay relative to control; assay type: toxicity, cell-based; settings: human, read-out: Activity
[12] = Cytotoxicity against HEK293 cells assessed as reduction in cell proliferation at 1 uM incubated for 72 hrs by SRB assay relative to control; assay type: toxicity, cell-based; settings: human, read-out: Activity
[13] = tested on: HEK293; assay: Cytotoxicity against HEK293 cells assessed as reduction in cell proliferation at 0.31 uM incubated for 72 hrs by SRB assay relative to control; assay type: toxicity, cell-based; design: scale not given: the % may be the effect or the level left; settings: human, hek293, 72 h
[14] = Cytotoxicity against HEK293 cells assessed as reduction in cell proliferation at 0.1 uM incubated for 72 hrs by SRB assay relative to control; assay type: toxicity, cell-based; settings: human, read-out: Activity
[15] = Inhibition of Sporosarcina pasteurii CCM 2056 native urease using urea as substrate measured for 1.5 hrs by colorimetric method
[16] = Inhibition of Sporosarcina pasteurii CCM 2056 native urease using urea as substrate preincubated for 1 hr followed by substrate addition and measured for 1.5 hrs by colorimetric method
[17] = Inhibition of -ureolysis in live Helicobacter pylori Tx30a (ATCC 51932) in presence of urea by absorbance based analysis; assay type: functional
[18] = tested on: Sporosarcina pasteurii; assay: Inhibition of Sporosarcina pasteurii CCM 2056 native urease using urea as substrate in presence of DTT measured for 1.5 hrs by colorimetric method
[19] = Stability of compound in methanol assessed as rate of hydrolysis measured after 3 days by NMR analysis; assay type: physicochemical; settings: time 3 day, read-out: Activity
[20] = tested on: Sporosarcina pasteurii; assay: Inhibition of Sporosarcina pasteurii CCM 2056 native urease using urea as substrate by colorimetric method; settings: TDE = time-dependent effect
[21] = tested on: Sporosarcina pasteurii; assay: Competitive inhibition of Sporosarcina pasteurii CCM 2056 native urease using urea as substrate in presence of DTT measured for 1.5 hrs by colorimetric method

pKi [15]	pKi [16]	pIC50 [17]	inhibition [18]	Compound	inhibition at 72 h, 100 µM [1] [%]	inhibition at 72 h, 31.4 µM [2] [%]	inhibition at 72 h, 10 µM [3] [%]	Activity [4] [%]	inhibition at 72 h, 1 µM [5] [%]	inhibition at 72 h, 0.31 µM [6] [%]	Activity [7] [%]	inhibition at 72 h, 100 µM [8] [%]	inhibition at 72 h, 31.4 µM [9] [%]	Activity [10] [%]	inhibition at 72 h, 3.14 µM [11] [%]	inhibition at 72 h, 1 µM [12] [%]	Activity [13] [%]	inhibition at 72 h, 0.1 µM [14] [%]	further results
3.53	3.64	3.39	Active	COC(=O)CCP(=O)(O)CC(C(=O)OC)c1ccc(O)c(O)c1 (stereo not given)															degraded at 72 h [19]: < 5%
3.53	5.21	5.03	inactive	O=C(O)CCP(=O)(O)CC(C(=O)O)c1ccc(O)c(O)c1 (racemic)	33.2	25.8	17.4	17.5	13.4	4.9	8	7.7	10.4	16.3	10.1	8.1	8.5	13.5	
4.38	4.46	4.30	Active	O=C(O)C(CP(=O)(O)O)c1cc(O)c(O)cc1Br (racemic)															inhibition [21]: Active
3.40	5.63	6.12	inactive	O=C(O)C(CP(=O)(O)O)c1ccc(O)c(O)c1 (racemic)	34.9	24.9	22.1	20.1	18.6	15.6	6.7	7.8	-3	-3	-0.2	-0.8	-1.6	1.4	inhibition [20]: Tde
3.97	4.11	4.50	Active	COC(=O)C(CP(=O)(O)O)c1ccc(O)c(O)c1 (racemic)															degraded at 72 h [19]: < 5%
	5.48	3.81		CC(=O)NO [ACETOHYDROXAMIC ACID]															

Compound	pKi [15]	pKi [16]	pIC50 [17]	inhibition [18]	inhibition at 72 h, 100 µM [1] [%]	inhibition at 72 h, 31.4 µM [2] [%]	inhibition at 72 h, 10 µM [3] [%]	Activity [4] [%]	inhibition at 72 h, 1 µM [5] [%]	inhibition at 72 h, 0.31 µM [6] [%]	Activity [7] [%]	inhibition at 72 h, 100 µM [8] [%]	inhibition at 72 h, 31.4 µM [9] [%]	Activity [10] [%]	inhibition at 72 h, 3.14 µM [11] [%]	inhibition at 72 h, 1 µM [12] [%]	Activity [13] [%]	inhibition at 72 h, 0.1 µM [14] [%]	further results
O=P(O)(O)CCc1ccc(O)c(O)c1	4.75	5.04	4.58	Active	17.8	18.3	12.7	10.6	15	5.9	0.4	15.7	15.6	8.4	0.1	-0.9	-3.4	2.2	
O=C(O)C(CP(=O)(O)CC(C(=O)O)c1ccc(O)c(O)c1)c1ccc(O)c(O)c1 (mixture of isomers)	4.80	5.17	4.88	inactive															
COC(=O)C(CP(=O)(O)CC(C(=O)OC)c1ccc(O)c(O)c1)c1ccc(O)c(O)c1 (mixture of isomers)	3.65	5.12	3.97	inactive															
O=C(O)C(C[PH](=O)O)c1ccc(O)c(O)c1 (racemic)	4.10	4.23	4.98	inactive															inhibition [20]: Tde
